The target in assay [1] is T1, Recombinant human BACE1 (Homo sapiens, UniProt P56817).
T1 construct: purchased R&D Systems
Nature of the assay: Assay of BACE1 inhibitory activity: 384-well. Format: biochemical. The settings on record: Assay format 384-well. In a few lines:
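Recombinant human BACE1 was incubated 2 h at 25 °C with a biotin/Eu-cryptate-labelled peptide substrate and compound in DMSO. Streptavidin-XL665 in pH 7.0 phosphate buffer containing 0.8 mol/L KF was then added for 30 min at 25 °C for HTRF detection.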

For assay [2], the system named is Aβ production in neuroblastoma SH-SY5Y cells (SH/APPwt). Put plainly: β-amyloid (Aβ) production inhibitory effect in cell: 384-well. Format: cell-based. Conditions: Homo sapiens, Assay format 384-well. The essentials: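 SH-SY5Y cells overexpressing human wild-type APP were seeded together with test compound (final DMSO 1%) and cultured for 21 h. Aβ1-40 in the supernatant was measured by HTRF after overnight incubation at 4 °C in the dark, reading fluorescence at 620 and 665 nm.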

Assay [3] addresses T2, CYP2C9 (Homo sapiens, UniProt P11712).
T2 construct: The commercially available pooled human liver microsomes are used as an enzyme resource; from tissue; host or cells: pooled human liver microsomes
Put plainly: CYP inhibition test (CYP2C9). It is filed as in vitro ADME. The settings on record: pooled human liver microsomes; tolbutamide methyl-hydroxylation. In a few lines: (§1)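 Metabolite formation was quantified by LC/MS/MS: dextrorphan (2D6, 5 μmol/L dextromethorphan), terfenadine alcohol (3A4, 1 μmol/L terfenadine), 4′-hydroxymephenytoin (2C19, 50 μmol/L S-mephenytoin) and hydroxytolbutamide (2C9, 100 μmol/L tolbutamide). Reactions used NADPH-started pooled human liver microsomes (0.2 mg/mL) at 37 °C with compound at 1–20 μmol/L (four points). IC50 was calculated by logistic model relative to the DMSO control.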
(Liver microsomes are vesicles of endoplasmic reticulum, rich in cytochrome P450 enzymes.)

Assay [4] concerns the target T3, CYP2D6 (Homo sapiens, UniProt P10635).
T3 construct: The commercially available pooled human liver microsomes are used as an enzyme resource; from tissue; host or cells: pooled human liver microsomes
Put plainly: CYP inhibition test (CYP2D6). It is filed as in vitro ADME. Conditions: pooled human liver microsomes; dextromethorphan O-demethylation. The essentials: as §1

In general, IC50 refers to the point on the concentration scale where inhibition reaches its midpoint.

T3 sequence (P10635 whole entry): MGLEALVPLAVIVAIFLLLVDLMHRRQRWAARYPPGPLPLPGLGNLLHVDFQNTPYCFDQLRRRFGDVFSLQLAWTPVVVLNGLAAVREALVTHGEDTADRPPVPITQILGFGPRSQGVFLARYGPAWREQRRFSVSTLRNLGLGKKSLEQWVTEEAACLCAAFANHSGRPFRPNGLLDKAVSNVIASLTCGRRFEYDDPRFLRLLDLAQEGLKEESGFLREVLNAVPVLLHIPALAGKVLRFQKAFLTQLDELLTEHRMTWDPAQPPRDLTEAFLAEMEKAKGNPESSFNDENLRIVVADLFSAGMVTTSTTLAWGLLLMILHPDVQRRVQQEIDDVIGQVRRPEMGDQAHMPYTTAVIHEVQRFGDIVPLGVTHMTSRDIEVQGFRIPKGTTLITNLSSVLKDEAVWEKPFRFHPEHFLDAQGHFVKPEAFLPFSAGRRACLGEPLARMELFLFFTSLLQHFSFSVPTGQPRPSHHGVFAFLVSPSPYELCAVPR
T1 sequence (P56817 46-501): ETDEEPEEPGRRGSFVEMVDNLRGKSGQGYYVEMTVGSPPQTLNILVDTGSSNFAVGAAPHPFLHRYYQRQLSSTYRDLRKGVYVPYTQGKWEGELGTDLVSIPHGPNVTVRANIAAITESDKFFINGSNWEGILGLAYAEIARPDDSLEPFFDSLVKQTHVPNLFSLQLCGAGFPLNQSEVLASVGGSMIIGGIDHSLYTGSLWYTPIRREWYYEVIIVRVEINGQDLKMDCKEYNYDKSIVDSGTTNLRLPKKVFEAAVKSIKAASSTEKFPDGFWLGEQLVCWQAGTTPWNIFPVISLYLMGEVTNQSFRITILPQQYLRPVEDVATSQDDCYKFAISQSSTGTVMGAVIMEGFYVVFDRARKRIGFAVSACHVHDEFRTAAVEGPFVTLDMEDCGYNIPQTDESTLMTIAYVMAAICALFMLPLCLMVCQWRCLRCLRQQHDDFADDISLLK
T2 sequence (P11712 whole entry): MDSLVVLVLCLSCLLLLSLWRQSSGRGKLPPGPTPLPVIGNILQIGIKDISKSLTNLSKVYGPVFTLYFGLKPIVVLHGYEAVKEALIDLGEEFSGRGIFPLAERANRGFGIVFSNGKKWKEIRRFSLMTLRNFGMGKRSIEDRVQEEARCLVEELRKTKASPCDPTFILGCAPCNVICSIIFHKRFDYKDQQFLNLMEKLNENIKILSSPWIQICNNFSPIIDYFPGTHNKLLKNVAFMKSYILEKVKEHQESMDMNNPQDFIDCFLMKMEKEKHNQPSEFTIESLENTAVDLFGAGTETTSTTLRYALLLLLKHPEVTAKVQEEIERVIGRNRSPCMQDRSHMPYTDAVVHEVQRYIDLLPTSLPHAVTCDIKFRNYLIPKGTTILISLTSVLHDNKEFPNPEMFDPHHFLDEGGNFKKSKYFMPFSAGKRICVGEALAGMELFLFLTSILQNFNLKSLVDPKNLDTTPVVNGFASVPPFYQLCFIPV

With `CC(F)(F)[C@H]1OC(N)=N[C@](C)(c2cc(NC(=O)c3ccc(C#N)cn3)ccc2F)[C@H]1F` [Compound I-40], the IC50 in assay [1] is 21.1 nM; in assay [2], 6 nM; in assay [3] it was not below 20000 nM; in assay [4], not below 20000 nM.

For `C[C@H]1[C@@H](C(F)(F)F)OC(N)=N[C@]1(C)c1cc(NC(=O)c2cnc(OCF)cn2)ccc1F` [Compound I-41], the concentration for half-maximal inhibition (IC50) stood at 14.6 nM in assay [1] and 15 nM in assay [2].

`COc1cnc(C(=O)Nc2ccc(F)c([C@@]3(C)N=C(N)O[C@H](C(C)(F)F)[C@@H]3F)c2)cn1` [Compound I-42]: the figures for the IC50 in assay [1] and in assay [2] were 14.7 nM and 21 nM, respectively.

For the molecule `C[C@H]1SC(N)=N[C@](C)(c2cc(NC(=O)c3cnc(OCC(F)(F)F)cn3)ccc2F)[C@H]1F` [Compound I-46], the IC50 was 23.6 nM in assay [1], 2.4 nM in assay [2] and not below 10000 nM in assay [4].

Regarding `C[C@H]1SC(N)=N[C@](C)(c2cc(NC(=O)c3cnc(OC(F)F)cn3)ccc2F)[C@H]1F` [Compound I-47], the IC50 amounted to 4.77 nM in assay [1] and 1.2 nM in assay [2].

`C[C@H]1SC(N)=N[C@](C)(c2cc(NC(=O)c3cnc(OCC(F)F)cn3)ccc2F)[C@H]1F` [Compound I-48]: the IC50 was 7.49 nM in assay [1], 5.4 nM in assay [2] and not below 10000 nM in assay [4].

Turning to `C[C@H]1SC(N)=N[C@](C)(c2cc(NC(=O)c3coc(CF)n3)ccc2F)[C@H]1F` [Compound I-49], the IC50 in assay [1] is 3.13 nM; in assay [2], 0.025 nM; in assay [3], not below 10000 nM; in assay [4], not below 20000 nM.

Consider `COc1ccc(C(=O)Nc2ccc(F)c([C@@]3(C)N=C(N)S[C@H](C)[C@@H]3F)c2)nc1` [Compound I-50], for which the IC50 is 7.77 nM in assay [1] and 0.39 nM in assay [2].

Take `C[C@H]1SC(N)=N[C@](C)(c2cc(NC(=O)c3ccc(OCF)cn3)ccc2F)[C@H]1F` [Compound I-51]: the IC50 was 17.5 nM in assay [1] and 0.41 nM in assay [2].

Take `Cc1cc(C#N)cnc1C(=O)Nc1ccc(F)c([C@@]2(C)N=C(N)S[C@H](C)[C@@H]2F)c1` [Compound I-52]: the IC50 in assay [1] was 7.62 nM; in assay [2], 0.42 nM; in assay [4] it was not below 20000 nM.

Turning to `C[C@H]1SC(N)=N[C@](C)(c2cc(NC(=O)c3ncc(OCC(F)(F)F)cn3)ccc2F)[C@H]1F` [Compound I-53], the IC50 was 14.5 nM in assay [1], 0.89 nM in assay [2] and not below 20000 nM in assay [4].

Consider `COc1cnc(C(=O)Nc2ccc(F)c([C@@]3(C)N=C(N)SCC34CC(F)(F)C4)c2)cn1` [Compound I-55], for which the IC50 is 19.8 nM in assay [1], 0.3 nM in assay [2] and not below 20000 nM in assay [3].

On to `C[C@]1(c2cc(NC(=O)c3ccc(C#N)cn3)ccc2F)N=C(N)SCC12CC(F)(F)C2` [Compound I-59], for which the half-inhibitory concentration (IC50) in assay [1] was 10.9 nM; in assay [2], 0.058 nM; in assay [3], not below 20000 nM.

Consider `C[C@H]1SC(N)=N[C@](C)(c2cc(NC(=O)c3cnc(OCF)cn3)ccc2F)C12CC(F)(F)C2` [Compound I-62], for which the IC50 in assay [1] was 7.74 nM; in assay [2], 0.25 nM; in assay [3], not below 10000 nM.

Take `C[C@H]1SC(N)=N[C@](C)(c2cc(NC(=O)c3ccc(F)cn3)ccc2F)C12CC(F)(F)C2` [Compound I-63]: the IC50 was 11.9 nM in assay [1], 5.4 nM in assay [2] and not below 10000 nM in assay [3].

On to `C[C@H]1SC(N)=N[C@](C)(c2cc(NC(=O)c3ncc(C#N)cc3Cl)ccc2F)[C@H]1F` [Compound I-64], for which the IC50 in assay [1] is 7.06 nM; in assay [2], 0.22 nM; in assay [4], not below 20000 nM.

In the case of `C[C@H]1SC(N)=N[C@](C)(c2cc(NC(=O)c3cnc(C(F)F)cn3)ccc2F)[C@H]1F` [Compound I-65], the figures for the half-inhibitory concentration (IC50) in assay [1] and in assay [2] were 21.9 nM and 1.1 nM, respectively.

Turning to `CC[C@H]1SC(N)=N[C@](C)(c2cc(NC(=O)c3cnc(OCF)cn3)ccc2F)[C@H]1F` [Compound I-66], the results for the IC50 in assay [1] and in assay [2] were 5.62 nM and 0.13 nM, respectively.

For `CC[C@H]1SC(N)=N[C@](C)(c2cc(NC(=O)c3ccc(OCF)cn3)ccc2F)[C@H]1F` [Compound I-67], the results for the IC50 in assay [1] and in assay [2] were 5.47 nM and 0.56 nM, respectively.

For the molecule `CC[C@H]1SC(N)=N[C@](C)(c2cc(NC(=O)c3ccc(F)cn3)ccc2F)[C@H]1F` [Compound I-70], the IC50 in assay [1] was 10.6 nM; in assay [2], 2 nM; in assay [4], not below 10000 nM.

On to `COc1cnc(C(=O)Nc2ccc(F)c([C@@]3(C)N=C(N)O[C@H]([C@@H](C)F)[C@@H]3F)c2)cn1` [Compound I-71], for which the IC50 in assay [1] was 12 nM; in assay [2], 0.54 nM; in assay [3], not below 20000 nM.

`CC(F)(F)[C@H]1OC(N)=N[C@](C)(c2cc(NC(=O)c3cnc(OCC(F)(F)F)cn3)ccc2F)[C@H]1F` [Compound I-75]: the IC50 was 15.6 nM in assay [1], 8.3 nM in assay [2] and not below 10000 nM in assay [3].

Take `CC#CCOc1cnc(C(=O)Nc2ccc(F)c([C@@]3(C)N=C(N)O[C@H](C(C)(F)F)[C@@H]3F)c2)cn1` [Compound I-76]: the IC50 was found to be 3.77 nM in assay [1] and 1.6 nM in assay [2].

In the case of `CC(F)(F)[C@H]1OC(N)=N[C@](C)(c2cc(NC(=O)c3cnc(OCC(F)F)cn3)ccc2F)[C@H]1F` [Compound I-77], the results for the IC50 in assay [1], in assay [2] and in assay [3] were 45.8 nM, 79 nM and not below 10000 nM, respectively.

On to `COCC(F)(F)[C@H]1OC(N)=N[C@](C)(c2cc(NC(=O)c3cnc(OCF)cn3)ccc2F)[C@H]1F` [Compound I-79], for which the 50% inhibitory concentration (IC50) in assay [1] was 13.2 nM; in assay [2], 4.5 nM; in assay [3], not below 10000 nM.

On to `C[C@]1(c2cc(NC(=O)c3ccc(C#N)cn3)ccc2F)N=C(N)O[C@H](C(F)(F)C2CC2)[C@@H]1F` [Compound I-81], for which the figures for the 50% inhibitory concentration (IC50) in assay [1], in assay [2] and in assay [3] were 16.9 nM, 21 nM and not below 10000 nM, respectively.

With `C[C@]1(c2cc(NC(=O)c3cnc(OCF)cn3)ccc2F)N=C(N)O[C@H](C(F)(F)C2CC2)[C@@H]1F` [Compound I-82], the IC50 in assay [1] stood at 25.1 nM; in assay [2], 17 nM.

As for `COc1cnc(C(=O)Nc2ccc(F)c([C@@]3(C)N=C(N)O[C@H](C(F)(F)C4CC4)[C@@H]3F)c2)cn1` [Compound I-83], the IC50 was found to be 30.3 nM in assay [1] and 14 nM in assay [2].

`C[C@H]1SC(N)=N[C@](C)(c2cc(NC(=O)c3cnc(OCC4CC4)cn3)ccc2F)[C@H]1F` [Compound I-85]: the IC50 is 15.4 nM in assay [1], 4.8 nM in assay [2] and not below 20000 nM in assay [4].

As to `COc1cnc(C(=O)Nc2ccc(F)c([C@@]3(C)N=C(N)O[C@H](C(F)F)[C@@H]3C)c2)cn1` [Compound I-86], the concentration for half-maximal inhibition (IC50) in assay [1] was 101 nM; in assay [2], 2.21 nM; in assay [3], not below 20000 nM.

In the case of `CO[C@H]1[C@@H](C)SC(N)=N[C@]1(C)c1cc(NC(=O)c2cnc(OCF)cn2)ccc1F` [Compound I-87], the IC50 in assay [1] is 21.4 nM; in assay [2] it was 0.66 nM; in assay [3], not below 20000 nM; in assay [4] it was not below 20000 nM.

Consider `CO[C@H]1[C@@H](C)SC(N)=N[C@]1(C)c1cc(NC(=O)c2ccc(C#N)cn2)ccc1F` [Compound I-88], for which the IC50 was 14.4 nM in assay [1], 0.13 nM in assay [2], not below 20000 nM in assay [3] and not below 20000 nM in assay [4].

Take `CO[C@H]1[C@@H](C)SC(N)=N[C@]1(C)c1cc(NC(=O)c2ccc(F)cn2)ccc1F` [Compound I-89]: the IC50 in assay [1] was 15.1 nM; in assay [2], 1.5 nM; in assay [3] it was not below 20000 nM; in assay [4] it was not below 20000 nM.

As for `COc1cnc(C(=O)Nc2ccc(F)c([C@@]3(C)N=C(N)S[C@H](C)[C@@H]3OC)c2)cn1` [Compound I-90], the half-inhibitory concentration (IC50) in assay [1] was 15.3 nM; in assay [2], 0.51 nM; in assay [3], not below 20000 nM; in assay [4] it was not below 20000 nM.

In the case of `COC[C@H]1SC(N)=N[C@](C)(c2cc(NC(=O)c3cnc(OCF)cn3)ccc2F)[C@H]1F` [Compound I-91], the half-inhibitory concentration (IC50) in assay [1] was determined as 6.37 nM; in assay [2], 0.25 nM.

As for `C[C@]1(c2cc(NC(=O)c3ccc(OCF)cn3)ccc2F)N=C(N)O[C@H](C2(F)CC2)[C@@H]1F` [Compound I-101], the IC50 in assay [1] was found to be 25.3 nM; in assay [2], 11 nM.

In the case of `COc1ccc(C(=O)Nc2ccc(F)c([C@@]3(C)N=C(N)S[C@H](C)[C@@H]3F)c2)nn1` [Compound I-108], the results for the IC50 in assay [1], in assay [2] and in assay [4] were 136 nM, 8.8 nM and not below 10000 nM, respectively.

Consider `C[C@]1(c2cc(NC(=O)c3cnc(OCF)cn3)ccc2F)N=C(N)S[C@H](CO)[C@@H]1F` [Compound I-109], for which the IC50 came to 10.8 nM in assay [1] and 0.45 nM in assay [2].

In the case of `C[C@H]1SC(N)=N[C@](C)(c2cc(NC(=O)c3ccc(F)cn3)ccc2F)[C@H]1F` [Compound I-116], the IC50 is 7.84 nM in assay [1], 0.99 nM in assay [2] and not below 20000 nM in assay [4].
